Experimental findings from ChEMBL document CHEMBL4145528, “Novel dissymmetric 3,5-bis(arylidene)-4-piperidones as potential antitumor agents with biological evaluation in vitro and in vivo” (Eur J Med Chem, 2018) are described below.

Assay [1] has as its system HepG2. Put plainly: Cytotoxicity against human HepG2 cells assessed as reduction in cell viability after 24 hrs by MTT assay. It counts as functional, cell-based. The note with it: for IC50: HepG2, 24 h. For orientation: Formazan colour is commonly taken as a measure of viable cells.
Assay [2] has as its system HeLa. Description: Cytotoxicity against human HeLa cells assessed as reduction in cell viability after 24 hrs by MTT assay. Format: functional, cell-based.
Assay [3] deals with K562. Description: Cytotoxicity against human K562 cells assessed as reduction in cell viability after 24 hrs by MTT assay. The note with it: for IC50: K562, 24 h. It counts as functional, cell-based.
For assay [4], the system named is THP-1. Description: Cytotoxicity against human THP1 cells assessed as reduction in cell viability after 24 hrs by MTT assay. Format: functional, cell-based. The note with it: for IC50: THP-1, 24 h.
The subject of assay [5] is L02. Description: Cytotoxicity against human LO2 cells assessed as reduction in cell viability after 24 hrs by MTT assay. Format: cell-based. To be noted: L02, 24 h.
Assay [6] relates to HepG2. Put plainly: Upregulation of Bax protein expression in human HepG2 cells at 50 uM after 3 hrs by western blot analysis. It counts as functional, cell-based.
In assay [7] the test system is HepG2. Description: Downregulation of Bcl2 protein expression in human HepG2 cells at 50 uM after 3 hrs by western blot analysis. It counts as functional, cell-based. On the technique in general: Immunoblotting shows a protein as a band on a membrane.

The IC50 is the midpoint of a concentration-inhibition curve.

Activity calls are given as the source filed them. The rule behind the calls is not given here. A value given as a limit tells only on which side of the number the result lay.

For the molecule `COc1cc(/C=C2\CN(C)C/C(=C\c3ccc(F)cc3)C2=O)cc(OC)c1OC`, the IC50 turned out to be 7.34 µM in assay [1]; 7.25 µM in assay [2]; 10.2 µM in assay [3]; 6.13 µM in assay [4]; 10.7 µM in assay [5].
On to `COc1cc(/C=C2\CN(C)C/C(=C\c3cc(OC)c(OC)c(OC)c3)C2=O)cc(OC)c1`, for which the Activity entry in assay [1], in assay [2], in assay [3] and in assay [4] was “Dose-dependent effect” each time. Further, the IC50 was 0.89 µM in assay [1]; 2.3 µM in assay [2]; 3.47 µM in assay [3]; 0.72 µM in assay [4]; 14.6 µM in assay [5]. Further, the outcome in assay [6] and in assay [7] was Active.
On to `CN1C/C(=C\c2ccc(C#N)cc2)C(=O)/C(=C/c2ccc(C(F)(F)F)cc2)C1`, for which the IC50 in assay [1] was found to be 0.98 µM; in assay [2] it was 3.21 µM; in assay [3] it was 4.01 µM; in assay [4], 1.43 µM; in assay [5], 17.2 µM.
Taken in the same sequence, the figures for `COc1cc(/C=C/C(=O)CC(=O)/C=C/c2ccc(O)c(OC)c2)ccc1O` [CURCUMIN] were 13.8 µM, 31.9 µM, 23.1 µM, 22.5 µM and 25.7 µM.
The corresponding values for `CN1C/C(=C\c2ccc(Cl)cc2)C(=O)/C(=C/c2cccc([N+](=O)[O-])c2)C1` are 8.21 µM, > 20 µM, > 20 µM, 7.87 µM and > 20 µM.
As to `COc1cc(/C=C2\CN(C)C/C(=C\c3ccc(Cl)c(Cl)c3)C2=O)cc(OC)c1OC`, the IC50 stood at 6.96 µM in assay [1]; 13.5 µM in assay [2]; 16.1 µM in assay [3]; 5.33 µM in assay [4]; 18.4 µM in assay [5].
For the molecule `CN1C/C(=C\c2ccc(C(C)(C)C)cc2)C(=O)/C(=C/c2ccccc2F)C1`, the IC50 in assay [1] turned out to be 9.12 µM; in assay [2], 15.5 µM; in assay [3] it was 18.2 µM; in assay [4] it was 13.4 µM; in assay [5], 25.8 µM.
For the molecule `CN1C/C(=C\c2ccc(C(F)(F)F)cc2)C(=O)/C(=C/c2ccccc2F)C1`, the IC50 in assay [1] turned out to be 4.14 µM; in assay [2], 6.56 µM; in assay [3], 6.34 µM; in assay [4], 5.93 µM; in assay [5], 18.6 µM.
Taken in the same sequence, the figures for `COc1cc(/C=C2\CN(C)C/C(=C\c3ccc(Cl)cc3Cl)C2=O)cc(OC)c1OC` were 8.8 µM, > 20 µM, > 20 µM, 5.02 µM and 13.4 µM.
The corresponding values for `CN1C/C(=C\c2ccc(F)cc2)C(=O)/C(=C/c2cccc([N+](=O)[O-])c2)C1` are 9.34 µM, 6.25 µM, 11.2 µM, 7.16 µM and 17.6 µM.
For the molecule `COc1cc(/C=C2\CN(C)C/C(=C\c3ccc(Cl)cc3)C2=O)cc(OC)c1OC`, the IC50 is 8.25 µM in assay [1]; > 20 µM in assay [2]; > 20 µM in assay [3]; 7.2 µM in assay [4]; 14 µM in assay [5].
Regarding `COc1cc(/C=C2\CN(C)C/C(=C\c3ccc(Cl)c(Cl)c3)C2=O)cc(OC)c1`, the IC50 stood at 3.84 µM in assay [1]; 6.9 µM in assay [2]; 9.49 µM in assay [3]; 3.26 µM in assay [4]; 10.6 µM in assay [5].
`CN1C/C(=C\c2cccc([N+](=O)[O-])c2)C(=O)/C(=C/c2ccc(Cl)c(Cl)c2)C1`: the IC50 in assay [1] was 5.96 µM; in assay [2] it was 9.12 µM; in assay [3] it was 15.5 µM; in assay [4], 5.02 µM; in assay [5] it was 14.8 µM.
The corresponding values for `CN1C/C(=C\c2ccc(Br)cc2)C(=O)/C(=C/c2cccc([N+](=O)[O-])c2)C1` are 8.8 µM, 11.9 µM, > 20 µM, 7.69 µM and 9.85 µM.
As for `COc1cc(/C=C2\CN(C)C/C(=C\c3ccc(Br)cc3)C2=O)cc(OC)c1OC`, the IC50 turned out to be 6.8 µM in assay [1]; 11.9 µM in assay [2]; 12.4 µM in assay [3]; 5.33 µM in assay [4]; 15.4 µM in assay [5].
Taken in the same sequence, the figures for `CN1C/C(=C\c2ccc(Br)cc2)C(=O)/C(=C/c2ccc(C#N)cc2)C1` were 4.84 µM, 5.9 µM, 7.42 µM, 4.4 µM and 10.5 µM.
In the case of `COc1cc(/C=C2\CN(C)C/C(=C\c3ccc(Br)cc3)C2=O)cc(OC)c1`, the IC50 was determined as 4.84 µM in assay [1]; 5.9 µM in assay [2]; 7.42 µM in assay [3]; 4.27 µM in assay [4]; 21.3 µM in assay [5].
With `CN1C/C(=C\c2ccc(F)cc2)C(=O)/C(=C/c2ccc(C#N)cc2)C1`, the IC50 in assay [1] came to 6.14 µM; in assay [2], 10.2 µM; in assay [3], 11.2 µM; in assay [4], 5.03 µM; in assay [5], 20.9 µM.
For the molecule `CN1C/C(=C\c2ccc(C#N)cc2)C(=O)/C(=C/c2ccc(Cl)cc2Cl)C1`, the half-inhibitory concentration (IC50) came to 6.25 µM in assay [1]; 7.76 µM in assay [2]; 11.9 µM in assay [3]; 1.91 µM in assay [4]; 10.8 µM in assay [5].
The corresponding values for `COc1cc(/C=C2\CN(C)C/C(=C\c3ccc(Cl)cc3)C2=O)cc(OC)c1` are 5.95 µM, 11.2 µM, 13.3 µM, 5.86 µM and 18.9 µM.
In the case of `COc1cc(/C=C2\CN(C)C/C(=C\c3ccccc3F)C2=O)cc(OC)c1`, the IC50 was 1.24 µM in assay [1]; 5.45 µM in assay [2]; 6.32 µM in assay [3]; 1.17 µM in assay [4]; 11.9 µM in assay [5].
Taken in the same sequence, the figures for `CN1C/C(=C\c2cccc([N+](=O)[O-])c2)C(=O)/C(=C/c2ccc(Cl)cc2Cl)C1` were 4.8 µM, 8.9 µM, 12.4 µM, 3.56 µM and 14 µM.
Take `COc1cc(/C=C2\CN(C)C/C(=C\c3ccc(F)cc3)C2=O)cc(OC)c1`: the IC50 in assay [1] amounted to 6.14 µM; in assay [2] it was 10.2 µM; in assay [3] it was 11.2 µM; in assay [4], 5.04 µM; in assay [5] it was 21.9 µM.
Taken in the same sequence, the figures for `COc1cc(/C=C2\CN(C)C/C(=C\c3cccc([N+](=O)[O-])c3)C2=O)cc(OC)c1OC` were 1.89 µM, 5.54 µM, 4.2 µM, 0.89 µM and 13.6 µM.
As for `CN1C/C(=C\c2cccc([N+](=O)[O-])c2)C(=O)/C(=C/c2ccccc2F)C1`, the IC50 was 1.08 µM in assay [1]; 2.34 µM in assay [2]; 3.89 µM in assay [3]; 1.01 µM in assay [4]; 13.5 µM in assay [5].
As for `CN1C/C(=C\c2cccc(Br)c2)C(=O)/C(=C/c2cccc([N+](=O)[O-])c2)C1`, the IC50 came to 4.89 µM in assay [1]; 11.1 µM in assay [2]; 12.2 µM in assay [3]; 4.03 µM in assay [4]; 8.07 µM in assay [5].
The corresponding values for `COc1cc(/C=C2\CN(C)C/C(=C\c3ccc(C#N)cc3)C2=O)cc(OC)c1` are 0.88 µM, 3.42 µM, 4.65 µM, 0.94 µM and 14 µM.
Taken in the same sequence, the figures for `CN1C/C(=C\c2ccc(C#N)cc2)C(=O)/C(=C/c2ccccc2F)C1` were 0.59 µM, 1.34 µM, 2.67 µM, 0.81 µM and 11 µM.
The corresponding values for `COc1cc(/C=C2\CN(C)C/C(=C\c3cccc([N+](=O)[O-])c3)C2=O)cc(OC)c1` are 1.84 µM, 2.56 µM, 4.42 µM, 1.77 µM and 10.8 µM.
As for `COc1ccc(/C=C2\CN(C)C/C(=C\c3ccccc3F)C2=O)cc1`, the IC50 turned out to be 12.2 µM in assay [1]; 23.4 µM in assay [2]; 18.4 µM in assay [3]; 15.4 µM in assay [4]; 22.1 µM in assay [5].
In the case of `COc1cc(/C=C2\CN(C)C/C(=C\c3ccc(Cl)cc3Cl)C2=O)cc(OC)c1`, the IC50 amounted to 6.25 µM in assay [1]; 7.76 µM in assay [2]; 11.9 µM in assay [3]; 6.07 µM in assay [4]; 18.8 µM in assay [5].
Take `CN1C/C(=C\c2ccc(Cl)cc2)C(=O)/C(=C/c2ccc(C#N)cc2)C1`: the IC50 is 5.95 µM in assay [1]; 11.2 µM in assay [2]; 13.3 µM in assay [3]; 3.18 µM in assay [4]; 16.2 µM in assay [5].
For the molecule `COc1ccc(/C=C2\CN(C)C/C(=C\c3ccccc3F)C2=O)cc1OC`, the IC50 in assay [1] amounted to 8.76 µM; in assay [2], 14.3 µM; in assay [3], 18 µM; in assay [4], 11.2 µM; in assay [5] it was 10.5 µM.
